Values quoted from earlier work in patent US12201725B2, “Dry powder compositions of treprostinil prodrugs and methods of use thereof” (Insmed Incorporated, priority 2019, dated 2025).
Read-outs that look alike come from different tables or passages of the source.

Tests used:
[1] = guinea pigs, comparison, not tested in Example 6
[2] = system: hypoxia-induced increase in right ventricular pulse pressure (RVPP); conditions: inhaled, comparison, not tested in Example 5

SMILES: CCCCC[C@H](O)CC[C@@H]1[C@H]2Cc3cccc(OCC(=O)O)c3C[C@H]2C[C@H]1O [treprostinil]
- Timing of cough ([1]; nebulized): ≤ 10 min
- Threshold dose of inhaled TRE that causes cough [1]: 1.23 µg/kg
- Duration of inhibition of the hypoxia-induced increase in RVPP ([2]; highest dose 215 μg/kg): 2 h
- Duration of inhibition of the hypoxia-induced increase in RVPP ([2]; lower doses 15, 53, or 110 μg/kg): 1 h
